Assay results as given in US20170087129A1, “COMPOSITIONS AND METHODS FOR THE TREATMENT OF ATHEROSCLEROTIC CARDIOVASCULAR DISEASES WITH PDE4 MODULATORS” (Celgene Corporation, priority 2014, published 2017).

How the values were obtained:
[1] = test system: PDE4 enzyme from U937 human monocytic cells; assay: Inhibition of PDE4 (enzyme assay, [3H]-cAMP); type: biochemical; conditions: purified PDE4 enzyme from U937 human monocytic cells; 1 μM cAMP, 45 min at 30° C.
Protocol: Phosphodiesterase 4 enzyme was purified from U937 human monocytic cells by gel filtration chromatography, and phosphodiesterase reactions were carried out as previously described. See, e.g., Muller et al., Bioorg. Med. Chem. Lett., 1998, 8(19): 2669-2674. Briefly, reactions were carried out in 96-well deep-well plates in 50 mM Tris HCl pH 7.5, 5 mM MgCl2, 1 μM cyclic adenosine monophosphate (cAMP), plus 10 nM [^3H]-cAMP for 45 min at 30° C. The reactions were terminated by boiling, treated with 1 mg/ml snake venom, and separated using AG-1X8 ion exchange resin (BioRad). Reactions consumed less than 15% of available substrate.

[2] = test system: THP-1 cells; assay: Inhibition of foam cell formation in THP-1 cells (Oil Red O staining); type: cell-based; conditions: THP-1 cells + PMA, 50 μg/ml acLDL + 500 U/ml IFN-γ; two doses of 100 nM compound; versus vehicle samples; light microscopy
Protocol: THP-1 cells in suspension were maintained in RPMI 1640 media (PenStep, 10% FBS, 37° C., 5% CO2). The cells plated at 10^5-10^6 cells/well in 24-well plate (500 uL/well). Cell count was 34 at 1:20 and 1:30 dilution. Then, 100 nM PMA was added to allow for differentiation into macrophages, and the mixture was incubated for 24 hours. To the mixture, was added 500 U/mL IFN-gamma, and the resulting mixture was incubated for another 24 hours.
For vehicles, 50 μg/ml of acLDL and 500 U/ml IFN-γ were added to the cells. For those samples that received treatment by Compound A1, a first dose of 100 nM of Compound A1 was added 15 minutes before the addition of acLDL, and a second dose of 100 nM Compound A1 was added after 24 hours. Then, media was removed, and cells washed three times with PBS and fixed in 10% formalin for 10 minutes. Cells were rinsed in PBS (1 minute) and then with 60% isopropanol (15 seconds). Samples were stained with Oil Red O in darkness for 1 minute at 37° C. Samples were rinsed again in 60% isopropanol, then three times with PBS. Wells were kept hydrated until imaging, and samples were visualized using light microscopy.

Compound | IC50 [1] [nM] | formation of foam cells [2]
CCOc1cc([C@@H](CS(C)(=O)=O)N2C(=O)c3cccc(NC(C)=O)c3C2=O)ccc1OC [Compound A1, (S)—N-(2-(1-(3-ethoxy-4-methoxyphenyl)-2-(methylsulfonyl)ethyl)-1,3-dioxoisoindolin-4-yl)acetamide] | ~74 | significantly reduced formation of foam cells
CCOc1cc([C@H](CS(C)(=O)=O)N2C(=O)c3cccc(NC(C)=O)c3C2=O)ccc1OC [Compound A2, (R)—N-(2-(1-(3-ethoxy-4-methoxyphenyl)-2-(methylsulfonyl)ethyl)-1,3-dioxoisoindolin-4-yl)acetamide] | – | effective in preventing or inhibiting the formation of foam cells
